Among the data in ChEMBL document CHEMBL1131774, “Synthesis of water-soluble phenytoin prodrugs” (Bioorg Med Chem Lett, 1999) are metabolised values, retold here.

Common to all, as to format: ADME, organism-based
Holding throughout (conditions): rat, read-out: Hydrolysis

Data set [1] in a line: Compound was tested for percent hydrolysis in whole blood, after a time interval of 15.0 min.
A short description of data set [2]: Compound was tested for percent hydrolysis in whole blood after a time interval of 180.0 min.
A short description of data set [3]: Compound was tested for percent hydrolysis in whole blood after a time interval of 2.0 min.
Data set [4] is described as follows: Compound was tested for percent hydrolysis in whole blood after a time interval of 60.0 min.
The nature of data set [5]: Compound was tested for percent hydrolysis in whole blood after a time interval of 0.5 min.
Data set [6] can be described thus: Compound was tested for percent hydrolysis in whole blood after a time interval of 7.0 min.
Data set [7] in a line: Compound was tested for percent hydrolysis in whole blood after a time interval of 5.0 min.

For the molecule `O=C1NC(c2ccccc2)(c2ccccc2)C(=O)N1COP(=O)(O)O` [FOSPHENYTOIN SODIUM], the metabolised at 0.25 h in data set [1] amounted to 45.4%. Moreover, in data set [2], the metabolised at 3 h stood at 95.3%. Further, the metabolised at 2 min in data set [3] is 11.6%. Besides, in data set [4], the metabolised at 1 h worked out at 87.5%. Moreover, the metabolised at 0.5 min in data set [5] stood at 7.95%. Further, the metabolised at 7 min in data set [6] worked out at 25%.

With `CC(OC(=O)CCC(=O)O)N1C(=O)NC(c2ccccc2)(c2ccccc2)C1=O` (stereo unspecified), the metabolised at 0.25 h in data set [1] turned out to be 55.9%. Further, the metabolised at 3 h in data set [2] came to 69.2%. The metabolised at 2 min in data set [3] is 42.4%. Besides, in data set [4], the metabolised at 1 h stood at 59.6%. The metabolised at 0.5 min in data set [5] amounted to 25.7%. Besides, the metabolised at 7 min in data set [6] worked out at 52.8%.

With `O=C(CN1CCCCC1)OCN1C(=O)NC(c2ccccc2)(c2ccccc2)C1=O`, in data set [7], the metabolised at 5 min is 97.5%. In addition, in data set [3], the metabolised at 2 min came to 96.5%. In addition, the metabolised at 0.5 min in data set [5] worked out at 49.2%.

In the case of `CC(OC(=O)CCCC(=O)O)N1C(=O)NC(c2ccccc2)(c2ccccc2)C1=O` (stereo unspecified), the metabolised at 0.25 h in data set [1] was 37.2%. Also, the metabolised at 3 h in data set [2] stood at 45.1%. Moreover, in data set [3], the metabolised at 2 min came to 26.7%. The metabolised at 1 h in data set [4] was 39.6%. Further, the metabolised at 0.5 min in data set [5] is 15%. Besides, the metabolised at 7 min in data set [6] was determined as 36.9%.

As to `O=C(CN1CCOCC1)OCN1C(=O)NC(c2ccccc2)(c2ccccc2)C1=O`, the metabolised at 0.25 h in data set [1] turned out to be 93.6%. For the same molecule, in data set [7], the metabolised at 5 min is 91%. Moreover, the metabolised at 2 min in data set [3] is 80.1%. In addition, the metabolised at 1 h in data set [4] amounted to 99.3%. Besides, in data set [5], the metabolised at 0.5 min was 28.7%.
